Experimental data: US7655597B1, “Pesticide compositions including polymeric adjuvants” (priority 2009, dated 2010)

Tested on: fire ants
Assay: fire ant kill test in insecticide-coated mason jar (time to death of entire population)
Assay type: in vivo
Settings: Table 1
Description: In this example a series of commercially available insecticides were tested at various dilution levels and with and without a preferred copolymer, namely the AVAIL® copolymer previously described (a 40%-60% w/w aqueous composition of a saturated sodium salt of a maleic anhydride/itaconic acid copolymer in water). In each set of test runs, the selected insecticide was tested with a population of fire ants in order to determine the time required to kill the entire population.
In particular, in each test run 20 ml of the respective liquid insecticide composition was added to a mason jar and swirled around the inside bottom thereof. The liquid was then poured off and the remainder was allowed to dry on the inner jar surface, creating substantially a monomeric dried layer. The outside neck surface of the jar was then coated in talc, and the open end of the jar was placed into a fire ant nest. The talc coating prevented the aggressive fire ants from climbing the outer surface of the jar. A population of fire ants was thus established in each jar, and the jar was then topped with an apertured mason jar cap. The time to death of all of the fire ants was then recorded.
In each case, the recommended concentration of insecticide was prepared (recorded as “1X”), followed by dilutions with water to create the diluted compositions. Where copolymer was used, the copolymer was added to the insecticide with gentle mixing, at a level of 30 ml per gallon. If desired, lesser amounts of copolymer could be used, e.g., 20 ml per gallon.
In another series of tests, insecticides were tested with various copolymers having different ratios of maleic anhydride and itaconic acid moieties, and at different pH levels. In particular, respective copolymeric compositions were prepared made up of polymaleic acid, a 1:3 weight ratio of maleic anhydride to itaconic acid, a 1:1 weight ratio of maleic anhydride to itaconic acid, a 3:1 weight ratio of maleic anhydride to itaconic acid, and a 7:1 weight ratio of maleic anhydride to itaconic acid. […]

[1] = insecticide at 1X (recommended concentration), time to death of all fire ants

CC1(C)C(C=C(Cl)Cl)C1C(=O)OCc1cccc(Oc2ccccc2)c1 (stereo not drawn) [permethrin, (3-phenoxyphenyl)methyl 3-(2,2-dichloroethenyl)-2,2-dimethyl-cyclopropane-1-carboxylate]
TIME TO DEATH (insecticide at 1/3X dilution): 5 min
TIME TO DEATH [1]: 5 min

CCOC(=O)CC(SP(=S)(OC)OC)C(=O)OCC (stereo not drawn) [malathion, 2-(dimethoxyphosphinothioylthio) butanedioic acid diethyl ester]
TIME TO DEATH [1]: 1 min
